Source: patent US5958947A, “DNA-affinic hypoxia selective cytotoxins” (priority 1996, dated 1999)
Values joined by “and” are separate entries in the source; they are usually repeats but may differ in a detail not shown here. Identical values can stand only once. “Also recorded” adds a separate entry of the source. Counter-ions that a name gives are not always drawn. Like-named read-outs stand apart in the source and are kept apart here.

Columns and labels:
calf thymus Topo I = assay: Topoisomerase I interaction (relaxation of supercoiled DNA); assay type: biochemical; details: 800 μM, compound alone
human Topo II = assay: Topoisomerase II interaction (decatenation of kinetoplast DNA); assay type: biochemical; details: up to 1 mM
Description: A Topo II assay kit (TopoGEN, Inc., Columbus, Ohio) also was used to assay the topoisomerase II--THNLA-1 interaction. […] Individual reaction mixtures were heated for 30 minutes at 37° C. on a heating block, and then 2 μl of a 10% SDS-proteinase K solution was added to each reaction mixture. The resulting reaction mixtures then were heated for an additional 30 minutes at 37° C. After addition of a 0.1 volume of loading buffer, the reaction mixtures were extracted with CHCl3 prior to submarine electrophoresis on a 1% agarose gel containing ethidium bromide (0.5 μg/ml).

supercoiled DNA = assay: DNA intercalation by agarose gel electrophoresis (mobility of supercoiled DNA); assay type: binding; details: electrophoretic gel, up to millimolar concentrations
Source text: An agarose gel electrophoresis technique was used to determine whether THNLA-1 intercalates DNA. Compounds that strongly intercalate DNA retard DNA mobility during agarose gel electrophoresis due to unwinding and extension of the dsDNA.

[1] = Partition coefficient in octanol/water; assay type: physicochemical
Description: The partition coefficient of the hypoxia selective cytotoxins of the present invention were determined by the method of T. Fujita et al., J. Am. Chem. Soc., 86, 5175-5180 (1964), incorporated herein by reference.

[2] = system: V79 Chinese hamster lung cells; assay: Acute aerobic and hypoxic cytotoxicity (colony formation); assay type: cell-based; details: for IC50: V79, 1 h, hypoxia, 50% inhibition of clonogenicity; for viability at 100 µM: 3.5 hours
Description: (§1) Samples of V79 Chinese hamster lung cells used in the following experiments were prepared as follows. V79 cells, exponentially growing as monolayer cultures in RPMI 1640 medium (Mediatech) supplemented with 10% fetal calf serum, were trypsinized, centrifuged for 5 min, harvested, then suspended in 25 ml Erlenmeyer flasks fitted with rubber caps at 5×10^5 cells/ml (5 ml). Individual flasks either were shaken (100 rpm) at 37° C. under aerobic conditions or made hypoxic by gassing with a 95% N2 (nitrogen)/5% CO2 (carbon dioxide) humidified gas mixture for 1 hour.
(§2) To determine the fraction of surviving cells, samples were removed, diluted and plated to provide 2×10^2 to 2×10^4 cells/well on 60 mm Linbro multi-well plates (Flow Laboratories, McLean, Virginia). The plates were incubated at 37° C. for 6 days, stained with crystal violet and examined for colony formation. Colonies of 50 cells or greater were counted. Each plotted point in FIGS. 1 and 2 represent the mean of three or four replicate experiments.

[3] = as above; assay type: cell-based, Chinese hamster; details: chinese hamster, aerobic v79 cells, aerobic, 1 hour, 37° C.; for IC50 at 1 h: V79 cells, 50% inhibition of clonogenicity
Description: as §1, §2

EMT6 tumors = assay: In vivo radiosensitization of EMT6 tumors; design: species or system balb mice; details: 0.103 mmol/g intraperitoneally, 20 Gy
V79 cells [4] = assay: Drug uptake: intracellular and extracellular concentrations in V79 cells; assay type: cell-based, Chinese hamster
Description: Also, uptake measurements at various times under both aerobic and hypoxic conditions were made. Afterwards, the samples were pelleted by centrifuging for 6 minutes at 0° C. A small volume of the supernatant (200 μl) was combined with 9 equal volumes (1.8 ml) of acetonitrile and the remaining supernatant was discarded. The samples were centrifuged again to remove residual supernatant and the pellets were lysed with 90 μl water and deproteinized with 0.9 ml acetonitrile. After centrifugation and filtration, all samples were stored at -70° C. until a UV spectroscopic analysis was made at two different wave lengths: 330 nm (nanometers) (absorption of the nitro-group) and 244 nm (λmax). […] Mean intracellular concentration of drug was calculated using a value of 810 fl as an intracellular water content of log-phase cells.
Concentrations were determined by UV spectrophotometry at 330 nm. The plotted points represent results from two experiments, in triplicate.

OVCAR cells = assay: Chemosensitization of OVCAR cells to L-PAM and cis-DDP; assay type: cell-based; details: OVCAR cells resistant to L-PAM and cis-DDP
Source text: A longer hypoxic preexposure time and a lower sensitizer dose are preferred over a shorter hypoxic preexposure time and a higher sensitizer dose. […] OVCAR cells are resistant to L-PAM and cis-DDP.

[5] = Toxicity study in balb mice; assay type: in vivo
V79 cells [6] = assay: Drug uptake in the presence of ammonium chloride; assay type: cell-based, Chinese hamster; details: aerobic V79 cells, 60 μM input, 50 mM NH4Cl (stated for THNLA-1)
Description: Uptake measurements in the presence of the lysosomotropic agent ammonium chloride (NH4 Cl) also were performed in a manner as previously described.
Concentrations were determined by UV spectrophotometry at 330 nm. The plotted points represent the mean of two experiments.

[7] = Cricetulus griseus, V79 cells, 1 hour, 37° C.

Structure (SMILES): O=[N+]([O-])c1nccn1CCCNc1c2c(nc3ccccc13)CCSC2 [S-THNLA-1, 10-[3-(2-nitroimidazolyl)propylamino]-3,4-dihydro-1-H-thiopyrano[4,3-b]quinoline hydrochloride]
- formation of nicked DNA by compound alone (calf thymus Topo I): caused the formation of some nicked DNA
- inhibition of Topo II-induced decatenation of kinetoplast DNA (human Topo II): did not inhibit the action of Topoisomerase II on kinetoplast DNA
- effect on mobility of supercoiled DNA (supercoiled DNA): do not affect the mobility of supercoiled DNA
- Partition coefficient in octanol/water: PCo/w ([1]; hydrochloride): 0.41 and 0.40
- IC50 [2, 7]: 68 µM
- Hypoxic selectivity (differential aerobic/hypoxic toxicity): IC50/A,1h /IC50/H,1h ([2]; V79 cells, 1 hour, 37° C.): about 9
- IC50 at 1 h [3]: 580 µM

Structure (SMILES): Cl.O=[N+]([O-])c1nccn1CCCNc1c2c(nc3ccccc13)CCCC2 [THNLA-1, 9-[3-(2-nitro-1-imidazolyl)propylamino]-1,2,3,4-tetrahydroacridine hydrochloride]
- administration time before irradiation for maximum radiosensitization (EMT6 tumors): at least one hour before irradiation
- radiosensitizing effect in vivo (EMT6 tumors; EMT6 tumors in balb mice, hydrochloride): synergistic effect; also recorded: potent radiosensitizing effect; also recorded: enhanced the effects of 20 Gy radiation in EMT6 tumors to a similar degree as 2 mmol/g of etanidazole
- inhibition of Topo II-induced decatenation of kinetoplast DNA (human Topo II; hydrochloride): does not inhibit the Topo II-induced decatenation of KDNA even at very high concentrations; also recorded: did not inhibit decatenation of kinetoplast DNA
- Ci over 15, 30 and 60 minutes, aerobic (V79 cells [4]; 20 μM, aerobic V79 cells, 37° C.): basically unchanged
- Ci over time, hypoxic (V79 cells [4]; 20 μM, hypoxic V79 cells, 37° C.): a decrease of Ci over time
- Ci compared with Ce (V79 cells [4]; V79 cells, 37° C., input 0 to 500 μM or 20 μM): substantially greater
- aerobic mean uptake factor (Ci/Ce) compared to NLA-1 (V79 cells [4]; aerobic V79 cells): did not result in an increase of the aerobic mean uptake factor
- input concentration at which the uptake factor (Ci/Ce) reaches a maximum (V79 cells [4]; aerobic, 30 minutes, 37° C.): about 100 μM
- chemosensitization to L-PAM and cis-DDP (OVCAR cells): effectively chemosensitizes OVCAR cells
- nontoxic concentration [5]: at least 0.129 mmol/g
- factor of decrease of Ci in the presence of NH4Cl (V79 cells [6]): about 3
- effect on mobility of supercoiled DNA (supercoiled DNA): do not affect the mobility of supercoiled DNA
- Partition coefficient in octanol/water: PCo/w [1]: 0.14
- logP ([1]; read-out: Partition coefficient in octanol/water: PCo/w (converted)): -0.854
- IC50 [2, 7]: ~33 µM
- IC90 ([2]; Cricetulus griseus, V79, hypoxic, 1 hour, 37° C., read-out: concentration to achieve a 10% survival fraction, hypoxic): ~100 µM
- viability at 100 µM ([2]; V79, aerobic, read-out: survival fraction, aerobic): ~50%
- viability at 100 µM ([2]; V79, hypoxic, read-out: survival fraction, hypoxic): < 0.002%
- IC50 at 1 h [3]: ~360 µM
- IC90 at 1 h ([3]; read-out: concentration to achieve a 10% survival fraction, aerobic): ~475 µM
